Test results: PubChem BioAssay (NCI)
“And” between values parts separate entries of the source, which are not always exact repeats. Equal entries are not always repeated.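 Values below derive from 48-hour exposures of cells grown in 96-well plates, with endpoints linearly interpolated between the two concentrations bracketing the appropriate inhibition level. The concentration for 50% growth inhibition is given as GI50. TGI denotes the concentration required for complete inhibition of growth.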

What was measured:
Experiment in all cases: DTP human tumour cell line panel, 48 h
[1] = system: A498 renal
[2] = system: PC-3 prostate
[3] = system: TK-10 renal
[4] = system: SK-MEL-28 melanoma
[5] = system: SF-539 CNS
[6] = system: CAKI-1 renal
[7] = system: MOLT-4 leukemia
[8] = system: SN12C renal
[9] = system: UACC-62 melanoma
[10] = system: HT29 colon

| SMILES | GI50 [1] [µM] | TGI [1] | GI50 [2] | TGI [2] | GI50 [3] | TGI [3] | GI50 [4] | TGI [4] | GI50 [5] | TGI [5] | GI50 [6] | TGI [6] | GI50 [7] | TGI [7] | GI50 [8] | TGI [8] | GI50 [9] | TGI [9] | GI50 [10] | TGI [10] |
| --- | --- | --- | --- | --- | --- | --- | --- | --- | --- | --- | --- | --- | --- | --- | --- | --- | --- | --- | --- | --- |
| C#Cc1ccc(-n2c(/C=C/c3ccc(C(F)(F)F)cc3)nc3ncccc3c2=O)cc1 | 2.34 | 5.76 µM | 1.96 µM | 6.31 µM | 2.19 µM | 3.7 µM | 1.78 µM | 3.26 µM | 1.68 µM | 3.17 µM | 2.26 µM | 6.22 µM | 3.01 µM | 8.81 µM | 2.08 µM | 5.63 µM | 1.62 µM | 3.61 µM | 2.03 µM | 3.95 µM |
| CCCCCN(CCCCC)CC(O)c1cc(C)c2ccc3cc(C(C)C)ccc3c2c1 (stereo unspecified) | 1.56 | 2.94 µM | 1.59 µM | 3.08 µM | 1.89 µM | 3.51 µM | 1.76 µM | 3.27 µM | 1.79 µM | 3.36 µM | 1.4 µM | 2.81 µM | 2.21 µM | 4.72 µM | 1.75 µM | 3.59 µM | 1.71 µM | 3.47 µM | – | – |
| O=S(=O)(NC1=NCCN1C(=S)SN1CCn2c1nsc2=S)c1ccc(OC(F)(F)F)cc1 | 15.9 | 29.7 µM | 13.1 µM | 37.2 µM | 11.3 µM | 24.6 µM | 22.7 µM | 64 µM | 1.31 µM | 12.1 µM | 17.5 µM | 74.5 µM | 2.04 µM | 7.39 µM | 14.5 µM | 30.3 µM | 11.6 µM | 24.4 µM | 11.4 µM | > 100 µM |
| CC[C@@]1(O)C[C@H](OC2CC(N(C)C)C(O)C(C)O2)c2c(O)c3c(c(O)c2[C@H]1OC1CC(N(C)C)C(O)C(C)O1)C(=O)c1cccc(O)c1C3=O (stereo partly specified) | < 0.01 | – | < 0.01 µM | – | < 0.01 µM | – | < 0.01 µM | 0.135 µM and 0.0405 µM | < 0.01 µM | 0.212 µM and 0.183 µM | – | 0.0545 µM | < 0.01 µM | 0.0573 µM | < 0.01 µM | 1.04 µM | < 0.01 µM | 0.0711 µM and < 0.01 µM | < 0.01 µM | 0.353 µM and 0.109 µM |
| COc1cc(Cc2cnc(/N=C3\C(=O)N(CN4CCN(c5c(F)cc6c(=O)c(C(=O)O)cn(C7CC7)c6c5OC)CC4C)c4ccc(F)cc43)nc2N)cc(OC)c1OC (stereo unspecified) | 26 | 49.7 µM | 13 µM | 25.7 µM | 11.6 µM | 25.3 µM | – | – | 19.9 µM | 47.5 µM | 15.5 µM | 36 µM | 1.16 µM | 6.97 µM | 15.6 µM | 31.1 µM | 12.6 µM | 26 µM | 14.9 µM | > 100 µM |
| CCC(CO)Nc1nc2ccc(Cl)cc2c2ccccc12 (stereo unspecified) | 4.6 | 16 µM | 10.3 µM | 24.9 µM | 3.91 µM | 18 µM | 14.3 µM | 27.3 µM | 10.4 µM | 22.2 µM | 2.82 µM | 14.6 µM | 3.55 µM | 15.2 µM | 11.5 µM | 25.3 µM | 4.71 µM | 17 µM | 4.58 µM | 15.6 µM |
| COC(=O)[C@@H]1[C@H](O)[C@H](C)[C@H](O)[C@@](C)(O)/C=C\C=C(C)C(=O)Nc2c(C)c(OC(C)=O)c3c(c2O)C(=O)C(C)=C2OCOC(=C23)C(C)=C[C@@](C)(O)[C@H](O)[C@@H](C)[C@H]1OC(C)=O | – | > 100 µM | – | > 66.9 µM | – | > 100 µM | – | > 100 µM | > 66.9 µM | > 100 µM | > 66.9 µM | > 100 µM | – | > 100 µM | 49.8 µM | > 100 µM and 66.9 µM | 25.1 µM | > 100 µM and 66.9 µM and 54.5 µM | – | > 100 µM and 66.9 µM |
| Cc1ccc2c(=O)cc(-c3ccc(F)cc3)[nH]c2n1 | – | 66.6 µM | 20.9 µM | 88.1 µM | – | > 100 µM | – | > 100 µM | – | > 100 µM | – | > 100 µM | – | > 100 µM | – | > 100 µM | – | > 100 µM | – | > 100 µM |
| O=C(Nc1ccc(Cl)c(Cl)c1)Nc1ccc(Cl)c(Cl)c1 | – | 2.79 µM and 5.18 µM | 2.82 µM and 1.78 µM | 12.3 µM and 9.82 µM | 3.3 µM and 2.59 µM | 13.3 µM and 5.86 µM | 3.24 µM and 4.13 µM | 14.2 µM and > 100 µM | 2.63 µM and 3.64 µM | 8.15 µM and 14.7 µM | 2.6 µM and 1.94 µM | 9.96 µM and 4.59 µM | 2.64 µM and 2.31 µM | 10.2 µM and 6.6 µM | 3.1 µM and 2.83 µM | 11.8 µM and 10.7 µM | 2.88 µM and 2.38 µM | 13.4 µM and 10.4 µM | 3.27 µM and 2.43 µM | 12.9 µM and 6.82 µM |
| O=C1CC(c2ccc3c(c2)OCO3)Nc2ccccc21 (stereo unspecified) | 13.4 | 28.7 µM | 3.83 µM | 36.6 µM | 25.7 µM | 99.4 µM | 15.1 µM | 32.7 µM | 10.8 µM | 24 µM | 5.31 µM | 47.5 µM | 12.8 µM | 64.2 µM | 6.28 µM | 23 µM | 11.7 µM | 30.3 µM | 7.76 µM | 33.1 µM |
| NC(=O)c1sc(-n2cnc3ccccc32)cc1OCc1ccccc1Br | 4.11 | 14.4 µM | 10.3 µM | > 25 µM | 11.3 µM | > 25 µM | > 25 µM | > 25 µM | 5.47 µM | > 25 µM | 14.2 µM | > 25 µM | 3.56 µM | > 25 µM | 14.2 µM | > 25 µM | 5.88 µM | > 25 µM | 1.06 µM | > 25 µM |
| COc1ccc(C(=O)Cn2c(C(=O)c3ccccc3)nc(-c3ccc(OC)cc3)c2-c2ccc(OC)cc2)cc1 | > 100 | > 100 µM | > 100 µM | > 100 µM | > 100 µM | > 100 µM | > 100 µM | > 100 µM | 31.5 µM | > 100 µM | 52.7 µM | > 100 µM | > 100 µM | > 100 µM | > 100 µM | > 100 µM | 98.3 µM | > 100 µM | > 100 µM | > 100 µM |
